The series in a line: Human HepG2 cell viability assay in 384 well format. In kind it is toxicity, cell-based. Set-up: dose 125 nL, time 70.5 hour; cytotoxicity at 70.5 h: concentration not given beside the values. As to conditions: HepG2 cells, read-out: Inhibition.
Regarding `Cc1nn(C)c(=O)c2nn(-c3cccc(Cl)c3)c(C)c12`, the cytotoxicity at 70.5 h was -14.1%.

Turning to `Cc1nn(C)c(=O)c2nn(-c3ccc(Cl)cc3)c(C)c12`, the cytotoxicity at 70.5 h was -1.68%.

For `CC(=O)c1nn(-c2ccccc2)c(C)c1C(C)=O`, the cytotoxicity at 70.5 h was -8.03%.

With `COc1ccc(-c2nnsc2C(=O)N2CCSCC2)cc1`, the cytotoxicity at 70.5 h is -8.21%.

For the compound `COc1ccc(-c2nnsc2C(=O)N2CCC(C(N)=O)CC2)cc1`, the cytotoxicity at 70.5 h is -13.8%.

`Cc1cs/c(=N\C(=O)Cn2nc(N3CCSCC3)ccc2=O)[nH]1`: the cytotoxicity at 70.5 h was -13.2%.

As for `Cc1cs/c(=N\C(=O)Cn2nc(N3CCOCC3)ccc2=O)[nH]1`, the cytotoxicity at 70.5 h is -13.8%.

As to `Cc1cn([C@@H]2CC3(CCNCC3)OC[C@@]2(C)O)c(=O)[nH]c1=O`, the cytotoxicity at 70.5 h amounted to 0.487%.

For the compound `c1cnc(N2CCC(c3csc(Nc4cnccn4)n3)CC2)nc1`, the cytotoxicity at 70.5 h stood at 12.4%.

With `O=C1CCOC[C@]2(CN(Cc3ccccc3)C[C@H]2c2ccccc2)N1`, the cytotoxicity at 70.5 h amounted to 26.7%.

With `COc1ccccc1Cc1cc(O)nc(NC(C)CN(C)C)n1` (configuration not stated), the cytotoxicity at 70.5 h was 2.81%.

In the case of `Cc1ccccc1OCCCNC(=O)C1(C)CC(=O)N2C=CC=CC2=N1` (configuration not stated), the cytotoxicity at 70.5 h came to 0.923%.

In the case of `CCC(C)(C)n1nnnc1C(c1cccs1)N1CCc2ccccc2C1` (configuration not stated), the cytotoxicity at 70.5 h worked out at 0.836%.

As for `Cc1nc(=O)c2ccccc2n1C1=CCN(CC(=O)NC(C)C)CC1`, the cytotoxicity at 70.5 h is -1.95%.

With `Cc1nc(NCCN2CCCC2=O)cc(C2CN(C(C)C)CCO2)n1` (configuration not stated), the cytotoxicity at 70.5 h was determined as 1.39%.

`CC(C)C(=O)N1CCCC(Cc2ncccn2)C1` (configuration not stated): the cytotoxicity at 70.5 h is -1.65%.

Regarding `CCC(=O)N1CCC(c2nc(N3CCCC3)ncc2S(C)(=O)=O)CC1`, the cytotoxicity at 70.5 h stood at 17.6%.

Consider `O=C(NCCO)C1(CC2CC(c3ccc(F)cc3)=NO2)CCOCC1` (configuration not stated), for which the cytotoxicity at 70.5 h worked out at 14.1%.

In the case of `CC(=O)N1CCC(c2noc(C3CCC(=O)N3)n2)CC1` (configuration not stated), the cytotoxicity at 70.5 h is 16.7%.

Consider `Cc1noc(C)c1-c1nc(C2CCCN(C(=O)CN)C2)ccc1CO` (configuration not stated), for which the cytotoxicity at 70.5 h is -11.3%.

`Cc1c(CN2CCCC2c2cncc(CN3CCCC3)n2)cnn1C` (configuration not stated): the cytotoxicity at 70.5 h was found to be 1.84%.

On to `CCn1cc(S(=O)(=O)N2CCC(C3CCCCN(C)C3=O)CC2)c(C)n1` (configuration not stated), for which the cytotoxicity at 70.5 h was 7.12%.

In the case of `CC(C)c1cc(C(=O)N2CCCC(c3cc(=O)nc4n3CCC4)C2)no1` (configuration not stated), the cytotoxicity at 70.5 h was -11.3%.

Consider `FC(F)(F)c1cc(C2CCCN(c3cnccn3)C2)n2ccnc2n1` (configuration not stated), for which the cytotoxicity at 70.5 h is -11.9%.

Take `CC(=O)N[C@H]1CCO[C@@H](c2cccc(NC(=O)c3ccc(=O)[nH]n3)c2)C1`: the cytotoxicity at 70.5 h came to 24.6%.

In the case of `COc1ccc(NC(=O)c2cnc(C3CCN(C(C)=O)C3)nc2C)cc1` (configuration not stated), the cytotoxicity at 70.5 h was found to be 17.3%.

Turning to `CC1(c2ncc(CN3CCSCC3)cn2)CCCCO1` (configuration not stated), the cytotoxicity at 70.5 h is -11.9%.

With `O=C(CCn1cccn1)N1CCC(c2nnc(-c3ccsc3)o2)CC1`, the cytotoxicity at 70.5 h was -8.63%.

Consider `CN1CCCC1c1ccnc2nccn12` (configuration not stated), for which the cytotoxicity at 70.5 h was -7.34%.

As for `COc1nsc2nc(C3CCCN3c3ncccn3)ccc12` (configuration not stated), the cytotoxicity at 70.5 h was -7.28%.

As to `O=S1(=O)NC(C2CCCN(S(=O)(=O)N3CCCC3)C2)=Nc2ccccc21` (configuration not stated), the cytotoxicity at 70.5 h was -6.9%.

As to `CC(=O)N[C@H]1CCO[C@@H](c2cccc(NC(=O)Cc3ccccc3)c2)C1`, the cytotoxicity at 70.5 h came out at 10.3%.

With `CC1(C(N)=O)CN(S(=O)(=O)c2cccc(F)c2)CCO1` (configuration not stated), the cytotoxicity at 70.5 h turned out to be 14.7%.

For the compound `Cc1nn(C)cc1NC(=O)CN1CCN(C2CCCC2)C(=O)C1`, the cytotoxicity at 70.5 h is -6.18%.

With `CN(CCn1cncc1-c1cnc(N2CCOCC2)nc1)C1CCCC1`, the cytotoxicity at 70.5 h was -5.17%.

With `O=S(=O)(c1cn[nH]c1)N1CCCC(O)(CN2CCOCC2)CC1` (configuration not stated), the cytotoxicity at 70.5 h was -3.34%.

On to `Cc1c(CN2Cc3nccn3CC2c2ccccc2)cnn1C` (configuration not stated), for which the cytotoxicity at 70.5 h was -4.09%.

On to `Cc1noc(C)c1C(=O)N[C@@H]1CCC[C@@H](Oc2ccccc2)[C@@H]1O`, for which the cytotoxicity at 70.5 h was -1.7%.

Consider `CC(C)c1cc(C(=O)NCCc2nc(-c3cccnc3)n[nH]2)[nH]n1`, for which the cytotoxicity at 70.5 h amounted to 11.1%.

`COc1ccc(C2CN(c3ncccn3)CCN2C(C)=O)cc1` (configuration not stated): the cytotoxicity at 70.5 h is -5.51%.

For `Cc1nccn1-c1nccnc1C1CCCN(C2CCCC2)C1` (configuration not stated), the cytotoxicity at 70.5 h came out at 14.2%.

In the case of `Cc1cccc(Nc2noc3c2CN(C(=O)c2ccn(C)n2)CC3)c1C`, the cytotoxicity at 70.5 h worked out at 3.73%.

In the case of `Cc1cccc(C)c1Nc1noc2c1CN(C(=O)c1c[nH]nc1C)CC2`, the cytotoxicity at 70.5 h is 12.8%.

Consider `COCC(=O)NCc1ccc(-c2ncncc2C(=O)N(C)C)cc1`, for which the cytotoxicity at 70.5 h was -2.25%.

Take `c1cc(CN2CCC[C@@H](Cn3nnc(-c4cnccn4)n3)C2)ccn1`: the cytotoxicity at 70.5 h was -2.89%.

As to `Cn1cc(CN2CCC(c3ncc(Cl)cc3S(C)(=O)=O)CC2)cn1`, the cytotoxicity at 70.5 h was -6.32%.

With `CN1C[C@]2(CC[C@@H](C(=O)N3CCOCC3)CC2)Oc2ccccc2C1=O`, the cytotoxicity at 70.5 h was -5.13%.

On to `CC(C)NC(=O)[C@H]1CN(Cc2ccccc2)C[C@@H]1C(=O)c1ccccc1`, for which the cytotoxicity at 70.5 h is -1.04%.

For the compound `O=C(O)[C@H]1CN(Cc2ccccc2)C[C@@H]1C(=O)c1ccccc1`, the cytotoxicity at 70.5 h is -3.77%.

As to `O=C(c1cc(C2CC2)n[nH]1)N1C[C@H]2CC[C@](O)(c3ccccc3F)[C@H]2C1`, the cytotoxicity at 70.5 h is -2.83%.

On to `Cc1cnc(C(=O)N2CCN(c3ncc4c(n3)CCOC4)CC2)cn1`, for which the cytotoxicity at 70.5 h was -1.26%.

As for `CCNC(=O)[C@@H]1CN(Cc2ccccc2)C[C@H]1C(=O)c1ccc(F)cc1`, the cytotoxicity at 70.5 h is -0.813%.

With `COc1ccccc1OCCN(C)Cc1c(C2CC2)[nH]c2ncccc12`, the cytotoxicity at 70.5 h amounted to 20.9%.

With `CN(CCc1ccccc1)Cc1c(C2CCOCC2)[nH]c2ncccc12`, the cytotoxicity at 70.5 h was -2.01%.

As for `CC(C)NC(=O)C1(Cc2ccccc2-c2ccccc2)CCCNC1` (configuration not stated), the cytotoxicity at 70.5 h is -1.97%.

In the case of `Cc1cccc(CN2CCOCC2c2[nH]ncc2C)n1` (configuration not stated), the cytotoxicity at 70.5 h was -2.39%.

Regarding `CN1CCCC1CCNC(=O)c1ccccc1-n1cnc(CN)c1` (configuration not stated), the cytotoxicity at 70.5 h worked out at 0.899%.

On to `Cc1nc(CC(=O)N2CCc3nc(-c4cnccn4)nc(O)c3C2)cs1`, for which the cytotoxicity at 70.5 h amounted to 12.3%.

For `O=C(NC(Cc1ccsc1)c1nccs1)C1CC1` (configuration not stated), the cytotoxicity at 70.5 h is -6.11%.

Regarding `O=C1NCC2(CCCN(Cc3cccnc3)C2)Oc2ccccc21` (configuration not stated), the cytotoxicity at 70.5 h is -7.07%.

`C=Cc1ccc(CN2CCCC3(CNC(=O)c4ccccc4O3)C2)cc1` (configuration not stated): the cytotoxicity at 70.5 h stood at 8.95%.

Turning to `Cn1nc(C2CCN(C(=O)c3cccs3)CC2)c2cccnc21`, the cytotoxicity at 70.5 h is -4.94%.

As for `COc1cccc(CC(=O)N2CCCC(c3n[nH]c4nccnc34)C2)c1` (configuration not stated), the cytotoxicity at 70.5 h is -10.4%.

As for `Fc1cccc(Cl)c1CN1CCC(c2n[nH]c3ncccc23)CC1`, the cytotoxicity at 70.5 h was found to be 13.7%.

Take `Cc1ccc(CN2CCCC(c3nn(C)c4nccnc34)C2)s1` (configuration not stated): the cytotoxicity at 70.5 h was found to be 9.04%.

`O=C(Cc1ccsc1)N1CCC(c2n[nH]c3nccnc23)CC1`: the cytotoxicity at 70.5 h was -8.21%.

In the case of `Cc1csc(C(Cc2ccsc2)NC(=O)Cn2cccnc2=O)n1` (configuration not stated), the cytotoxicity at 70.5 h is 14.5%.

Take `CCc1nc2ccccc2c(=O)n1CC1(O)CCN(CC(=O)OC)CC1`: the cytotoxicity at 70.5 h is -10.9%.

Regarding `O=C(Cn1cccnc1=O)NC(Cc1ccsc1)c1cccnc1` (configuration not stated), the cytotoxicity at 70.5 h was -6.19%.

For the compound `CC(C)Oc1ccc(CN2CCC(c3n[nH]c4ncccc34)CC2)cc1`, the cytotoxicity at 70.5 h was found to be 21.4%.

For the compound `COCCNC(=O)c1cc(S(=O)(=O)N2CCCCCC2)cs1`, the cytotoxicity at 70.5 h stood at 15.3%.

`Cc1nc(C2CCCN(C(=O)c3ccncc3)C2)c2sccn12` (configuration not stated): the cytotoxicity at 70.5 h was determined as 21.5%.

For `Cc1cnccc1CN1Cc2ccccc2O[C@]2(CC[C@H](CO)CC2)C1`, the cytotoxicity at 70.5 h worked out at 15.1%.

Turning to `Cc1cc(-c2cnn(CCNC(=O)CCn3cccn3)c2C2CC2)on1`, the cytotoxicity at 70.5 h is -3.81%.

Consider `Cc1nc(C2CCN(C(=O)c3cnc(N(C)C)nc3)CC2)c2sccn12`, for which the cytotoxicity at 70.5 h was determined as 1.86%.

In the case of `COCCNCc1cc2c(C)cc(C)cc2n2c(=O)n(C)nc12`, the cytotoxicity at 70.5 h came out at 2.41%.

Take `CCOCCCNCc1cc2c(C)cc(C)cc2n2c(=O)n(C)nc12`: the cytotoxicity at 70.5 h was -0.158%.

As to `Cc1cccnc1C(Cc1ccsc1)NC(=O)Cn1cccnc1=O` (configuration not stated), the cytotoxicity at 70.5 h was -1.07%.

`C=Cn1ncc(CN2C[C@@H]3C[C@@H](O)CN3C[C@H]2Cc2ccccc2)c1C`: the cytotoxicity at 70.5 h was -5.5%.

Turning to `CS(=O)(=O)N1CCCC(Cc2cncc(Br)c2)CC1` (configuration not stated), the cytotoxicity at 70.5 h is -2.69%.

`CC(=O)N1CCCC(Cc2cncc(Br)c2)C1` (configuration not stated): the cytotoxicity at 70.5 h is -1.98%.

Take `CN1CCC(Cc2cccc(-c3cc(F)ccc3C(=O)O)n2)CC1`: the cytotoxicity at 70.5 h is -4.18%.

For `CC(C)N1CCC(Cc2cc(-c3cc(F)ccc3C(=O)O)ncn2)C1` (configuration not stated), the cytotoxicity at 70.5 h is -3%.

For `Cn1nc(C2CN(S(C)(=O)=O)C2)c2nccnc21`, the cytotoxicity at 70.5 h is 3.57%.

`CN1CCCC(CCCc2cccnc2)(C(N)=O)C1` (configuration not stated): the cytotoxicity at 70.5 h is -3.41%.

With `CC(C)Oc1ccc(C(=O)N2CC[C@H](O)[C@@H](n3ccnc3)CC2)cc1`, the cytotoxicity at 70.5 h was 18.5%.

Regarding `Cc1ncoc1C(=O)N1CC[C@@H](O)[C@@H](O)[C@H](N2CCC(F)(F)CC2)C1`, the cytotoxicity at 70.5 h was -2.42%.

On to `CNc1cccc(C2CCN(C(=O)c3cccnc3)CC2)n1`, for which the cytotoxicity at 70.5 h is -5.08%.

As for `Cc1nccn1CCCn1cncc1-c1ccc2c(c1)CC(C)N2C` (configuration not stated), the cytotoxicity at 70.5 h worked out at 3.68%.

With `O=C(c1ccnc(C2CCNCC2)c1)N1CCCC1`, the cytotoxicity at 70.5 h came to 7.01%.

Take `CC(C)[C@H](N)C(=O)N1CCCC(C2=Nc3ccccc3S(=O)(=O)N2)C1` (some centres not stated): the cytotoxicity at 70.5 h was -9.78%.

Turning to `Cc1nc(N)c2ccc(C3CCCN3)nc2n1` (configuration not stated), the cytotoxicity at 70.5 h is -9.62%.

For the compound `Cn1nc(C2CCCN(Cc3ccc(F)cc3)C2)c2nccnc21` (configuration not stated), the cytotoxicity at 70.5 h stood at 5.25%.

For `Cn1nc(C2CCCN(Cc3cccs3)C2)c2nccnc21` (configuration not stated), the cytotoxicity at 70.5 h amounted to 3.16%.

`Cn1nc(C2CCCN(Cc3cc(F)ccc3F)C2)c2nccnc21` (configuration not stated): the cytotoxicity at 70.5 h was -2.84%.

In the case of `Cc1nc2sccn2c1CN(CCCN(C)C)Cc1ccccn1`, the cytotoxicity at 70.5 h was -8.06%.

On to `Cc1ccc(CN(CCN(C)C)Cc2c(C)nc3sccn23)o1`, for which the cytotoxicity at 70.5 h was 6.95%.

For the origin of these results see ChEMBL document CHEMBL3507680, “University of Dundee, Gates Library screen for HepG2 cell viability”.
